For test [1], the system named is Pectobacterium atrosepticum SCRI1043. Description: Growth experiment, sole phosphorus source. It is filed as cell-based. Particulars: PFM9 minimal medium, 5 mM ligand, 30 °C, 48 h. Here is the method: (§1) P. atrosepticum SCRI1043 was cultured overnight in phosphate-free M9-based medium (PFM9) supplemented with 20 mM glucose as the carbon source and 500 µM inorganic phosphate as the phosphate source. Cultures were washed and then diluted to an OD600 of 0.02 in PFM9 supplemented with different PacP ligands as the sole carbon or phosphorous source at a final concentration of 5 mM. Subsequently, 200 µL aliquots of these cultures were transferred into microwell plates, which were subsequently grown at 30 °C on a Bioscreen microbiological growth analyzer (Oy Growth Curves Ab Ltd., Helsinki, Finland) for 48 h.

The test system of a further test is Bacillus subtilis. Also noted: method as in PMID 119030, PMID 500565. Particulars: cited from earlier work.
Test [2] has as its system ECA_RS12390-LBD (PacP-LBD). In words: Thermal shift ligand screening of PacP-LBD. Format: binding, Pectobacterium atrosepticum. Particulars: thermal shift assay, Biolog arrays PM1, PM2A, PM3B, PM4A. Here is the method: (§2) Assays were carried out on a MyIQ2 Real-Time PCR instrument (Bio-Rad, Hercules, CA, USA). Ligand solutions were prepared by dissolving the array compounds in 50 µL of Milli-Q water, which, according to the manufacturer, corresponds to a concentration of 10–20 mM. Freshly purified proteins were dialyzed into analysis buffer (Additional file 2: Table S4). Compound arrays PM1, PM2A (carbon sources), PM3B (nitrogen sources), and PM4A (phosphorus and sulfur sources) from Biolog (https://www.biolog.com/) were used. The compositions of these arrays are provided in Additional file 2: Table S1. The experiments were conducted in 96-well plates, and each assay mixture contained 20 µL of the dialyzed protein (at 80–50 µM), 2 µL of 5 × SYPRO orange (Life Technologies, Eugene, Oregon, USA), and 2.5 µL of the resuspended array compound or the equivalent amount of buffer in the ligand-free control. The samples were heated from 23 to 85 °C at a scan rate of 1 °C/min. The protein unfolding curves were monitored by detecting changes in SYPRO® Orange fluorescence. The Tm values were determined from the first derivative values of the raw fluorescence data.

Test [3] has as its target LBD of chemoreceptor R5 (WP_028444678.1). In words: ITC binding to R5-LBD. Also noted: species or system Chitinimonas koreensis. Particulars: 20 °C, Nb = no binding. On the procedure: (§3) Plasmids for the overexpression of the different proteins were transformed into E. coli BL21(DE3). The resulting strains were grown under continuous stirring (200 rpm) at 30 °C in 2-L Erlenmeyer flasks containing 500 mL of LB medium supplemented with 50 μg/mL kanamycin. At an OD660 of 0.5, protein expression was induced by the addition of 0.1 mM isopropyl β-D-1-thiogalactopyranoside. Growth was continued at 16 °C overnight prior to cell harvesting by centrifugation at 10,000 × g for 20 min. Cell pellets were resuspended in buffer A (Additional file 2: Table S4) and subsequently broken by French press treatment at 62.5 lb/in^2. After centrifugation at 20,000 × g for 30 min, the supernatants were loaded onto 5-mL HisTrap HP columns (Amersham Biosciences) equilibrated with buffer A, and the proteins were eluted with a linear gradient of buffer B (Additional file 2: Table S4). All proteins contain a hexa-histidine tag at the N-terminal extension (Additional file 2: Table S3) and were purified at 4 °C. The purified proteins were dialyzed overnight into the corresponding analysis buffers (Additional file 2: Table S4) for immediate analysis.
(§4) All experiments were conducted on a VP microcalorimeter (Microcal, MA) at 15 °C for PacP-LBD and at 20 °C for the remaining proteins. Proteins were dialyzed into the analysis buffers specified in Additional file 2: Table S4, placed into the sample cell and titrated with aliquots of ligand solutions (1 to 10 mM) freshly prepared in dialysis buffer. The mean enthalpies measured from the injection of the ligands into the analysis buffer were subtracted from the raw titration data prior to data analysis with the MicroCal version of ORIGIN. The data were fitted with the “One binding site model” of ORIGIN.

Test [4] has as its target LBD of chemoreceptor R9 (WP_189529961.1) (Paludibacterium paludis, UniProt A0A918NWY2). In words: ITC binding to R9-LBD. Particulars: 20 °C, Nb = no binding. Here is the method:
as §3, §4

Test [5] concerns the target LBD of chemoreceptor R3 (WP_006464688.1) (Herbaspirillum frisingense, UniProt A0ABU1PC34). Description: ITC binding to R3-LBD. The settings on record: 20 °C, Nb = no binding. Here is the method:
as §3, §4

The subject of a further test is R3 LBD (WP_006464688.1). In words: Thermal shift ligand screening of R3. Particulars: thermal shift assay, R3, arrays PM1, PM2A, PM3B, PM4A. Format: binding, Herbaspirillum frisingense. On the procedure: as §2
In test [6] the test system is Pectobacterium atrosepticum SCRI1043. In words: Growth experiment, sole carbon source. Format: cell-based. The settings on record: PFM9 minimal medium, 5 mM ligand, 30 °C, 48 h. On the procedure:
as §1

Test [7] concerns the target LBD of chemoreceptor R2 (WP_136157342.1) (Brenneria roseae, UniProt A0A2U1TV64, H128N/K136R). Format: binding. The settings on record: ITC, 20 °C, R2 LBD; Nb = no binding. Here is the method:
as §3, §4

The next test deals with R2 LBD (WP_136157342.1). Description: Thermal shift ligand screening of R2. Format: binding, Brenneria roseae. The settings on record: thermal shift assay, R2, arrays PM1, PM2A, PM3B, PM4A. On the procedure: as §2
The test system of test [8] is PacP-LBD mutant (Y86, H100, R105, Y121, K148 and Y167 replaced by alanine). Description: ITC binding to PacP-LBD binding site motif mutant. Also noted: species or system Pectobacterium atrosepticum. The settings on record: 36 μM PacP-LBD alanine mutant; 1 mM glycerol 3-phosphate, 2.5 mM glyceraldehyde 3-phosphate. Here is the method:
as §3, with “The purified proteins were dialyzed overnight into the corresponding analysis buffers (Additional file 2: Table S4) for immediate analysis.” left out
All experiments were conducted on a VP microcalorimeter (Microcal, MA) at 15 °C for PacP-LBD and at 20 °C for the remaining proteins. […] The mean enthalpies measured from the injection of the ligands into the analysis buffer were subtracted from the raw titration data prior to data analysis with the MicroCal version of ORIGIN. […]

In a further test the test system is R4 LBD (WP_158281851.1). Description: Thermal shift ligand screening of R4. Format: binding, Rivicola pingtungensis. Particulars: thermal shift assay, R4, arrays PM1, PM2A, PM3B, PM4A. Here is the method:
as §2

Usually Kd stands for the concentration at which binding is half-saturated. A high value points to weaker binding.

LBD of chemoreceptor R3 (WP_006464688.1), sequence (A0ABU1PC34 entry or part of it): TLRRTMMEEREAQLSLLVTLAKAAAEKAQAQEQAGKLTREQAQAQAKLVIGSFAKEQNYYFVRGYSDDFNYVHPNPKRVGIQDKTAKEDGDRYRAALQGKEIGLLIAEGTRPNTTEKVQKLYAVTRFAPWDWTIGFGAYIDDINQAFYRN
LBD of chemoreceptor R9 (WP_189529961.1), sequence (A0A918NWY2 entry or part of it): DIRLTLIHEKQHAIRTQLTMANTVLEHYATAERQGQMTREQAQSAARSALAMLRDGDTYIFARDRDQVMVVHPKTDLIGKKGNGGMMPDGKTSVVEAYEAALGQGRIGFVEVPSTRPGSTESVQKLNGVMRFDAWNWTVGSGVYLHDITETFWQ
LBD of chemoreceptor R2 (WP_136157342.1), sequence (A0A2U1TV64 28-178 H128N/K136R): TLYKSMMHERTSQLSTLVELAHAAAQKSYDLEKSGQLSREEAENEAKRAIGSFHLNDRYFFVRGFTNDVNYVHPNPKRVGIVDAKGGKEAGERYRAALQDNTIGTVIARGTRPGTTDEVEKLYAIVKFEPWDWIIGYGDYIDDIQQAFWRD

Take `O=C(O)[C@@H](O)COP(=O)(O)O` [3-phosphoglycerate]: the “growth as sole phosphorus source” value in test [1] was “permitted growth”. Moreover, the chemotaxis result with Bacillus subtilis is on record as “weak chemotaxis”. In test [2], the “Tm change with respect to the ligand-free protein” value is listed as “significant increases in Tm”. Besides, the KD entry in test [3], in test [4] and in test [5] was “Nb” throughout.

For the compound `O=P(O)(O)OCC(O)CO` (stereo not shown) [glycerol 3-phosphate], the figures for the Tm change entry with R3 LBD (WP_006464688.1), in the test on R2 LBD (WP_136157342.1) and in the test on R4 LBD (WP_158281851.1) were “significant increases in the Tm”, “increases in the Tm” and “significant increases in the Tm”, respectively. The “growth as sole carbon source” value in test [6] was “supported growth”. Besides, the “growth as sole phosphorus source” value in test [1] is given as “supported growth”. Further, the chemotaxis entry with Bacillus subtilis is reported as “weak chemotaxis”. Also, the KD result was “showed binding” in test [7], “Nb” in [3], “Nb” in test [4] and “bound” in test [5]. For the same compound, the “Tm change with respect to the ligand-free protein” value in test [2] is on record as “significant increases in Tm”. Besides, the “binding in microcalorimetric titration” value in test [8] is reported as “absence of binding”. The same compound gave a dissociation constant Kd in test [5] of 33 ± 1 µM.

The values are drawn from PMC12395807, “Chemoreceptor family in plant-associated bacteria responds preferentially to the plant signal molecule glycerol 3-phosphate” (Genome Biology, 2025).
